Measurements reported in PMC11472331 (Journal of Medicinal Chemistry, 2024).
Where two headings read alike, the source gives them in different places.

Columns and labels:
LSD1 [1] = target: T1, LSD1 (Homo sapiens, UniProt O60341); conditions: read-out: IC50 (μM, LSD1 inhibition); 10-dose IC50 mode, singlet, threefold serial dilution starting at 100 μM
HDAC1 = HDAC1 (Homo sapiens, UniProt Q13547); experiment: HDAC isoform inhibition assay (Reaction Biology); conditions: read-out: IC50 HDAC1; 10-dose IC50 mode, threefold serial dilution starting at 10 μM
HDAC1, sequence (Q13547 whole entry, canonical isoform): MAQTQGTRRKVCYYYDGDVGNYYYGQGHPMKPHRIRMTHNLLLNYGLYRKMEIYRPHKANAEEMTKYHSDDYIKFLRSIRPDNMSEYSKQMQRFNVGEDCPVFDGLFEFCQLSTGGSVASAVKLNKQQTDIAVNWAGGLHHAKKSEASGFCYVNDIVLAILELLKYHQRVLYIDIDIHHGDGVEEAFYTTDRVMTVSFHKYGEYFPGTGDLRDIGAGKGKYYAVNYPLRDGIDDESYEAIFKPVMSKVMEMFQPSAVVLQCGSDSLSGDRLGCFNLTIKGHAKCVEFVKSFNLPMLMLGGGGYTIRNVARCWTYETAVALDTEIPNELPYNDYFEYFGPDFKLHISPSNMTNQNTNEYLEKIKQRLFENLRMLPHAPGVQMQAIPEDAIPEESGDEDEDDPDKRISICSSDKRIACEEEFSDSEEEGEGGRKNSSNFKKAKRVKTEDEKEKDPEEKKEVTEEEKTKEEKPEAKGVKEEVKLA

HDAC2 = HDAC2 (Homo sapiens, UniProt Q92769); experiment: HDAC isoform inhibition assay (Reaction Biology); conditions: read-out: IC50 HDAC2; 10-dose IC50 mode, threefold serial dilution starting at 10 μM
HDAC2, sequence (Q92769 whole entry, canonical isoform): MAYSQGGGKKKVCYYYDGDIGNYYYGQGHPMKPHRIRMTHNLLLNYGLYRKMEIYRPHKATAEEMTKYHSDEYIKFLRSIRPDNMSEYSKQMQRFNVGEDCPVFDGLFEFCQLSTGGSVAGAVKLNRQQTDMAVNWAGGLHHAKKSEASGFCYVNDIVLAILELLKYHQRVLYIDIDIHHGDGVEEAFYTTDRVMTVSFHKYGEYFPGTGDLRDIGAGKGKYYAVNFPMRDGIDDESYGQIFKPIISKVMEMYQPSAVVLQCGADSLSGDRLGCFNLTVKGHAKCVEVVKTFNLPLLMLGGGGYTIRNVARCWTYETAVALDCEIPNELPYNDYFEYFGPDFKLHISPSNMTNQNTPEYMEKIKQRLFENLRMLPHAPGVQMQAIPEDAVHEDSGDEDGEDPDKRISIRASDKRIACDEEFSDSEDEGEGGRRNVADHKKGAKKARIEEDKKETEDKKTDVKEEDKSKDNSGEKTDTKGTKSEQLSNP

HDAC6 = target: T2, HDAC6 (Homo sapiens, UniProt Q9UBN7); experiment: HDAC isoform inhibition assay (Reaction Biology)
T2 sequence (Q9UBN7 1-1215): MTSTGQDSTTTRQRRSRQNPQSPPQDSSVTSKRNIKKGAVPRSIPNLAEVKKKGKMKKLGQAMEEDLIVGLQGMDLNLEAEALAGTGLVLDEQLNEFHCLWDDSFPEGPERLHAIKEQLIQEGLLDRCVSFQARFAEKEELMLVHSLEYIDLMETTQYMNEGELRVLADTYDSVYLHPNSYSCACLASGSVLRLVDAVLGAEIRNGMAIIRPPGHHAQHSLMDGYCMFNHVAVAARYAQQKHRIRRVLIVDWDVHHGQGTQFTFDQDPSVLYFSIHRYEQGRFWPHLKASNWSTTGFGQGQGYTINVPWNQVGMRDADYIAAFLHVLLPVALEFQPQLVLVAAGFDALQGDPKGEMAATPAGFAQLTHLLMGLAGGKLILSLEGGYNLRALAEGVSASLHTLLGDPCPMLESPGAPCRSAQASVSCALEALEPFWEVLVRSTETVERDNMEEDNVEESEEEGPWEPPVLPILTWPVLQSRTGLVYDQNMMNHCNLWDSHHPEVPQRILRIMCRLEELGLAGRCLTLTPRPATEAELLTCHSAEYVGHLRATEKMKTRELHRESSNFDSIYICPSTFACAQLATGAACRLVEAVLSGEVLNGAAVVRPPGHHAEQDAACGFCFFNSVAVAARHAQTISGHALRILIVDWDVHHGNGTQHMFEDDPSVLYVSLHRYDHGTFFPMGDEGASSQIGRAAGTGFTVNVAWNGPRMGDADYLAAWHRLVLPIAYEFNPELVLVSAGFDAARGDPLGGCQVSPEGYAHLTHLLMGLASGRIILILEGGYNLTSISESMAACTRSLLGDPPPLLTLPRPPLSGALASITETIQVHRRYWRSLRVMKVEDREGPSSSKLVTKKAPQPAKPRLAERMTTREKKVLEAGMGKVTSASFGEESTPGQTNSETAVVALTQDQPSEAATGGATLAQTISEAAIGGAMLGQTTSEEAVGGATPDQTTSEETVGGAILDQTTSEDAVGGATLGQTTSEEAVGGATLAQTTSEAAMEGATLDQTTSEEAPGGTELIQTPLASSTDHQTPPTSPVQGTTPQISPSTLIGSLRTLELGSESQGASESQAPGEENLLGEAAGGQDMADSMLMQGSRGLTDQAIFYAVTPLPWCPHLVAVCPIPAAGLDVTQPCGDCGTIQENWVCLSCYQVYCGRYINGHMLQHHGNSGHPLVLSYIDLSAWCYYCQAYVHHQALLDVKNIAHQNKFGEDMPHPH

HDAC8 = target: T3, HDAC8 (Homo sapiens, UniProt Q9BY41); experiment: HDAC isoform inhibition assay (Reaction Biology); conditions: read-out: IC50 HDAC8; 10-dose IC50 mode, threefold serial dilution starting at 10 μM
T3 sequence (Q9BY41 1-377): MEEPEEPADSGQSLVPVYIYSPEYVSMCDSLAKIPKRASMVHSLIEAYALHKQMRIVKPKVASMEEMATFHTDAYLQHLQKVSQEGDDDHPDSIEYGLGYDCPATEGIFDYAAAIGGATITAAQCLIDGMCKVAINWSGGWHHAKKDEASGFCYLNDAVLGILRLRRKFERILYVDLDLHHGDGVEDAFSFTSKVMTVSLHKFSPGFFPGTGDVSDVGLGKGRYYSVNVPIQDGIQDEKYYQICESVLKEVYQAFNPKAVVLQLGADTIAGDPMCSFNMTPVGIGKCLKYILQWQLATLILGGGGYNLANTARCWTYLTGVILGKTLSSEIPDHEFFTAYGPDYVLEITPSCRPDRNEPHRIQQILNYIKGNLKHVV

in vivo = conditions: male, Sprague-Dawley, rat, plasma, po, 20 mg/kg
HCT-116 = HCT-116 xenograft model; type: in vivo, Balb/c nude mice; conditions: 50 or 100 mg/kg ip qd, nude mice
Description: (A) Tumor size was evaluated twice a week, and (B) body weight was recorded daily in the first week, followed by semiweekly measurements.
Once the tumor sizes reached 150 mm^3, the mice were divided into four treatment groups, each comprising six mice. […] Throughout the experiment, tumor size and body weight were measured twice a week, with tumor volume (mm^3) calculated using the formula LW^2/2 (L is the tumor length, and W is the tumor width). Tumor growth inhibition (TGI) was calculated by dividing the tumor volumes from treatment groups by those of the control groups, expressed as a percentage.

LSD1 [2] = target: T1, LSD1; experiment: KDM1/LSD1 activity quantification/colorimetric assay; type: biochemical; conditions: 1 and 10 μM; compared with Corgline, selegiline, tranylcypromine, pargyline
Description: LSD1 inhibitory assay was also performed using the KDM1/LSD1 Activity Quantification/Colorimetric Assay Kit, as described earlier.[38]

[3] = read-out: IC50 HDAC6, 10-dose IC50 mode, threefold serial dilution starting at 10 μM

Row | SMILES | IC50 (LSD1 [1]) | IC50 (HDAC1) | IC50 (HDAC2) | IC50 (HDAC6; [3]) | IC50 (HDAC8) | also measured
1 | O=C(CCCCCCC(=O)N[C@@H]1C[C@H]1c1ccccc1)NO [Compound 5, N1-Hydroxy-N8-((1R,2S)-2-phenylcyclopropyl)octanediamide] | 14.6 µM | – | – | – | – | –
2 | O=C(NO)c1ccc(CN2CCC(S(=O)(=O)N[C@@H]3C[C@H]3c3ccccc3)CC2)cc1 [Compound 10, N-Hydroxy-4-((4-(N-((1R,2S)-2-phenylcyclopropyl)sulfamoyl)piperidin-1-yl)methyl)benzamide] | 2.4 µM | 4.12 µM | 8.3 µM | 0.00932 µM | 0.407 µM | IC50 (HDAC6; read-out: HDAC6 IC50 as given in the text, rounded values of the running text): 0.009 µM
3 | O=C(/C=C/c1ccc(S(=O)(=O)N[C@@H]2C[C@H]2c2ccccc2)cc1)NO [Compound 3, (E)-N-Hydroxy-3-(4-(N-((1R,2S)-2-phenylcyclopropyl)sulfamoyl)phenyl)acrylamide] | 0.899 µM | 0.116 µM | 0.343 µM | 0.00966 µM | 0.753 µM | IC50 (HDAC6): 0.009 µM
4 | O=C(/C=C/c1cccc(S(=O)(=O)N[C@@H]2C[C@H]2c2ccccc2)c1)NO [Compound 2, (E)-N-Hydroxy-3-(3-(N-((1R,2S)-2-phenylcyclopropyl)sulfamoyl)phenyl)acrylamide] | 0.571 µM | 0.125 µM | 0.373 µM | 0.0118 µM | – | Tmax (in vivo): 1.1 ± 0.9 h; toxicity based on body weight measurements (HCT-116): did not cause evident toxicity in animals; IC50 (HDAC6): 0.011 µM; inhibition of LSD1 activity versus standard LSD1 inhibitors (LSD1 [2]): more effective in inhibiting the activity of LSD1 than the standard LSD1 inhibitor
5 | O=C(NO)c1ccc(CN2CCC(CN[C@@H]3C[C@H]3c3ccccc3)CC2)cc1 [Compound 9, N-Hydroxy-4-((4-((((1R,2S)-2-phenylcyclopropyl)amino)methyl)piperidin-1-yl)methyl)benzamide] | – | 12.9 µM | – | – | 1.26 µM | –
6 | O=C(NO)c1ccc(CN[C@@H]2C[C@H]2c2ccccc2)cc1 [Compound 1, N-Hydroxy-4-((((1R,2S)-2-phenylcyclopropyl)amino)methyl)benzamide] | 28 µM | 8.72 µM | – | – | – | –
7 | O=C(CCCCCCCCC(=O)N[C@@H]1C[C@H]1c1ccccc1)NO [Compound 7, N1-Hydroxy-N10-((1R,2S)-2-phenylcyclopropyl)decanediamide] | 7.68 µM | – | – | – | – | –
8 | O=C(CCCCCC(=O)N[C@@H]1C[C@H]1c1ccccc1)NO [Compound 4, N1-Hydroxy-N7-((1R,2S)-2-phenylcyclopropyl)heptanediamide] | 38.3 µM | – | – | – | – | –
9 | O=C(CCCCCCC(=O)Nc1ccc(CN[C@@H]2C[C@H]2c2ccccc2)cc1)NO [Compound 8] | 1.61 µM | – | – | 3.73 µM | – | –
